Reference: patent publication US20140314663A1, “PEPTIDE-MEDIATED DELIVERY OF ACTIVE AGENTS ACROSS THE BLOOD-BRAIN BARRIER” (MAYO FOUNDATION FOR MEDICAL EDUCATION AND RESEARCH, priority 2011, published 2014)
One block for each compound: values may come before it.

Key:
[1] = system: brains, lungs, heart, liver, spleen and kidney; test: Tissue distribution of Evans Blue (EB) after delivery via K16ApoE; format: in vivo, mice
Method: Mice were injected with various amounts of K16ApoE peptide (0 μg, 150 μg, 100 μg, 75 μg, 50 μg, 25 and μg) first. EB (40 μL of a 2% solution was injected 10 min after injection of the peptide. Tissues (brains, lungs, heart, liver, spleen and kidney) were collected 1 h after EB delivery. All injections were through the femoral vein.

brain = test: Residence time of EB dye in brain following transportation by the peptide; format: in vivo, mice
Method: A series of mice were administered 300 μg of K16ApoE followed by administration of ˜40 μL 2% EB 10 min after administration of the peptide. As a control, only EB was injected, cardiac perfusion was done 6 hours after EB injection, followed by collection of brain. For all other mice, perfusion and collection of brains was performed 15 min, 30 min, 1 h, 2 h, 4 h, 6 h, 12, h, and 24 h following administration of EB.

BBB [2] = test: Length of time of BBB opening following administration of peptide; format: in vivo, mice
Method: A series of mice were administered 300 μg of K16ApoE followed by administration of ˜40 μL 2% EB at various time points. As a control, only EB was injected, cardiac perfusion was done 6 hours after EB injection, followed by collection of brain. For the other images, 300 μg of K16ApoE was first injected, then EB was injected after 5 min, 10 min, 30 min, 1 h, 2 h and 4 h, respectively. Then, perfusion and collection of brain was done after 5 h 55 min, 5 h 50 min, 5 h 30 min, 5 h, 4 h and 2 h, respectively).

BBB [3] = test: EB transportation across the BBB as a function of the amount of K16ApoE administered; format: in vivo, mouse
Method: (§1) To explore whether K16ApoE (SEQ. ID. NO: 42) compromises integrity of the BBB, the peptide was first injected by iv followed by injection of Evan's Blue (EB; a routinely used small molecule blue dye with a molecular weight of 960.81) by iv into the femoral vein of a mouse. Cardiac perfusion was performed and the brains of the mice were removed and evaluated approximately 2 hours following injection of the dye. As controls, a peptide consisting of 16 lysine residues (K16) and a 20-amino acid peptide comprising the LDLR-binding domain of ApoE (ApoE-FITC; (SEQ ID NO:13)), were used. The particulars of each administration are as follows: • 1) 67.5 nanomoles of K16 injected first, then ˜40 μL 2% EB was injected. • 2) Same as 1 but K16 and EB mixed prior to injection. • 3) 67.5 nanomoles of ApoE-FITC injected first, then ˜40 μL 2% EB was injected. • 4) Same as 3 but ApoE-FITC peptide and EB was mixed prior to injection. • 5) 67.5 nanomoles of K16ApoE injected first, then ˜40 μL 2% EB was injected. • 6) Same as 5 but K16ApoE peptide and EB was mixed first before injection.
Using the method described in Example 1, various amounts of K16ApoE (SEQ. ID. NO: 42) was injected followed by administration of ˜40 μL 2% EB. […]

BBB [4] = test: Transportation of Evan's Blue (EB) dye across the BBB after iv injection of peptide; format: in vivo, mouse; settings: 67.5 nanomoles K16ApoE iv injected first, then ~40 μL 2% EB; brain evaluated ~2 hours after dye
Method: as §1

BBB [5] = test: Comparison of delivery of EB to the brain by K16ApoE and K26ApoE; format: in vivo; settings: for EB dye in brain: EB 10 min later, brain collected 1 h after EB
Method: This experiment was carried out to evaluate if lengthening the lysine-chain will have any effect on the delivery of small molecules to the brain. ˜40 μL of 2% EB was injected 10 min after injection of various amounts of K16ApoE (75 μg, 100 μg, 150 μg, 250 μg, and 300 μg) or K26ApoE (25 μg, 50 μg, 75 μg, 100 μg, 125 μg, and 150 μg). K26ApoE (SEQ ID NO: 139) having the sequence: Brain tissue as was collected 1 h following EB injection. All injections were at the femoral vein.

BBB [6] = test: Transportation of dyes of various molecular weights across the BBB (K16ApoE or K16ApoE+IgG); format: in vivo, mouse
Method: as §1
To evaluate delivery of molecules of various molecular weights across the blood brain barrier, the method of Example 1 was used with Evan's Blue (EB), MW 960.81 gmol; Crocein Scarlet, MW 584.54 g/mol; and Light green SF, MW 792.86 g/mol. […]

[7] = control: only EB injected, perfusion 6 hours after EB

time after administration up to which dye remains intense (retained well) in brain (brain; EB 10 min after 300 μg K16ApoE): up to 4 h | time post EB administration at which dye is first observed in brain (brain; EB 10 min after 300 μg K16ApoE): 15 min | time after administration up to which dye is still observed, less intensely, in brain (brain; EB 10 min after 300 μg K16ApoE, longest time point tested): up to 24 hours | EB dye in brain (brain; [7]): no dye is observed | EB dye in brain (BBB [2]; [7]): no dye was observed
Compound: Cc1cc(-c2ccc(/N=N/c3ccc4c(S(=O)(=O)O)cc(S(=O)(=O)O)c(N)c4c3O)c(C)c2)ccc1/N=N/c1ccc2c(S(=O)(=O)O)cc(S(=O)(=O)O)c(N)c2c1O [EB, Evan's Blue]
EB in brain ([1]; EB 10 min after 0-150 μg K16ApoE, tissues collected 1 h after EB): goes into brain only after injection of the peptide | EB stain of tissues ([1]; EB injected after K16ApoE injection): Kidney, spleen and liver are stained with EB | EB stain of tissues ([1]; EB injected without K16ApoE): Kidney, spleen, liver and heart show some EB-stain

Compound: KKKKKKKKKKKKKKKKLRVRLASHLRKLRKRLLRDA (KKKKKKKKKKKKKKKKLRVRLASHLRKLRKRLLRDA) [K16ApoE]
amount of K16ApoE giving best EB entry into brain ([1]; EB 10 min after peptide, tissues collected 1 h after EB): 150 µg | EB dye observed in the brain (BBB [3]; increasing amounts of K16ApoE (100, 200, 300 μg) injected before ~40 μL 2% EB): increasing amount of EB dye present in the brain | EB dye observed in the brain (BBB [3]; less than 100 μg K16ApoE injected before ~40 μL 2% EB): no dye is observed | EB dye in brain (BBB [2]; EB injected 5 min, 10 min, 30 min after 300 μg K16ApoE): observed | EB dye in brain (BBB [2]; EB injected 1 h and 2 h after 300 μg K16ApoE): decreased intensity of dye observed | EB dye in brain (BBB [2]; EB injected 4 h after 300 μg K16ApoE): little to no EB dye remaining | EB dye transported to the brain (blue coloring of brain) (BBB [4]): crosses the BBB and is transported to the brain | EB dye in brain (BBB [5]; 75 μg of peptide): no dye was observed | EB dye in brain (BBB [5]; 100 μg of peptide): only a small amount of dye present | EB dye in brain (BBB [5]; 150 μg of peptide and above): Increasing EB is observed | transport of dye to the brain (BBB [6]; 300 μg K16ApoE (alone or + 300 μg IgG) injected first, then dye (EB, Crocein Scarlet, Light green SF; ~40 μL 2%)): allowed transport of molecules of various sizes to the brain | transport of dye to the brain (BBB [6]; 300 μg K16ApoE mixed with dye (~40 μL 2%) prior to injection): does not appear to cross the BBB

Compound: KKKKKKKKKKKKKKKKKKKKKKKKKKLRVRLASHLRKLRKRLLRDA (KKKKKKKKKKKKKKKKKKKKKKKKKKLRVRLASHLRKLRKRLLRDA) [K26ApoE]
EB dye in brain (BBB [5]; 25 μg of peptide): no dye was observed | EB dye in brain (BBB [5]; 50 μg of peptide): only a small amount of dye present | EB dye in brain (BBB [5]; 75 μg of peptide): Increasing EB is observed | effectiveness in delivering EB to the brain relative to K16ApoE (BBB [5]; K26ApoE vs K16ApoE): approximately two-fold
